Results on three compounds are retold here after patent publication US10561624B2, “Methods and materials for the treatment of testosterone deficiency in men” (REPROS THERAPEUTICS INC., priority 2001, dated 2020).

“And” between values parts separate entries of the source, which are not always exact repeats. Equal entries are not always repeated. “Also recorded” adds a separate entry of the source. Structures can show the parent of a compound that is named as a salt.

The test system of data set [1] is Adult, male, Baboons. Kind of data set: Effects of Clomids on serum testosterone in male baboons. Conditions: for Serum Testosterone Levels, 6 days, mean / Serum Testosterone Levels, 12 days, mean / Serum Testosterone Levels, wash-out, mean / Serum Testosterone Levels, baseline, mean / Serum Testosterone Levels, 0 day, mean: group mean of 3 baboons; for Serum Testosterone Levels, 6 days, mean / Serum Testosterone Levels, 6 days: 1.5 mg/kg daily, day 6; for Serum Testosterone Levels, 12 days, mean: 1.5 mg/kg for 12 days; for Serum Testosterone Levels, 12 days, mean / Serum Testosterone Levels, 12 days: day 12; for Serum Testosterone Levels, wash-out, mean / Serum Testosterone Levels, wash-out: 7 days after the last treatment; for Serum Testosterone Levels, baseline, mean: before treatment; for Serum Testosterone Levels, 0 day, mean / Serum Testosterone Levels, 0 day: day 0, before first dose; for Serum Testosterone Levels, 6 days / Serum Testosterone Levels, 12 days / Serum Testosterone Levels, wash-out / Serum Testosterone Levels, baseline / Serum Testosterone Levels, 0 day: individual baboon; for Serum Testosterone Levels, 6 days / Serum Testosterone Levels, 12 days: 1.5 mg/kg; for Serum Testosterone Levels, 12 days / effect on total serum testosterone: 1.5 mg/kg for 12 consecutive days; for Serum Testosterone Levels, baseline: baseline Dec. 3, 2001, before treatment; for effect on total serum testosterone: male baboons.
Source text: (§1) The samples analyzed were sera taken on the day of first treatment before being given test article (day 0), after 12 days of treatment (day 12) and 7 days after the last treatment (end or wash-out).

For data set [2], the system named is Adult, male, Baboons. As to the kind of experiment: Effects on clinical chemistry parameters in male baboons. Type of data set: in vivo. Conditions: for serum glucose: changes within the normal range; for anionic gap: day 12 of treatment and 7 days after treatment (washout); for Alkaline phosphatase (ALP): following treatment; for serum cholesterol: not statistically significant, within the normal range.
Source text: as §1

In the next data set the test system is men. As to conditions: cited from earlier work.
For data set [3], the system named is Adult, male, Baboons. As to the kind of experiment: Effects on body weight and serum LH, FSH, PRL in male baboons. Type of data set: in vivo. Conditions: during the study.
Source text: as §1
For data set [4] the following is noted: Ernst et al.; cited from earlier work.
The conditions of data set [5]: cited from earlier work.

For the compound `CCN(CC)CCOc1ccc(C(=C(Cl)c2ccccc2)c2ccccc2)cc1` [Clomid, clomiphene citrate], the “variability of total testosterone levels (coefficients of variations)” value in the data set with Adult, male, Baboons [1] (day 6 and later, compared to animals receiving Enclomid) is on record as “more variable total testosterone levels”. Further, in the data set with Adult, male, Baboons [1], the “Serum Testosterone Levels, 6 days, mean” value was found to be 559.3 ng/dL; the “Serum Testosterone Levels, 12 days, mean” value was 588.7 ng/dL; the “Serum Testosterone Levels, wash-out, mean” value stood at 203.6 ng/dL; the “Serum Testosterone Levels, baseline, mean” value was determined as 111.5 ng/dL. Moreover, the “Serum Testosterone Levels, 0 day, mean” value with Adult, male, Baboons [1] was 161.4 ng/dL. Moreover, in the data set on Adult, male, Baboons [1] (listed as CLO), the “Serum Testosterone Levels, 6 days” value was 940.97 ng/dL and 585.92 ng/dL and 151.12 ng/dL; the “Serum Testosterone Levels, 12 days” value was 891.5 ng/dL and 555.6 ng/dL and 318.9 ng/dL; the “Serum Testosterone Levels, wash-out” value was 150.9 ng/dL and 316.3 ng/dL and 143.6 ng/dL; the “Serum Testosterone Levels, baseline” value was 79.01 ng/dL and 97.55 ng/dL and 158.06 ng/dL. For the same compound, the “Serum Testosterone Levels, 0 day” value in the data set with Adult, male, Baboons [1] (listed as CLO) was 76.15 ng/dL and 305.24 ng/dL and 102.94 ng/dL. For the same compound, in the data set with Adult, male, Baboons [2], the serum glucose entry is listed as “increase” and the anionic gap entry is listed as “lower values than the Enclomid group”. Further, in the data set on men (Guay et al. 1995, 2 months), the “LH, FSH, and testosterone after 2 months” value was “increase in LH, FSH, and testosterone”; the erectile dysfunction entry was “no effects on erectile dysfunction”. In the data set with men (Tenover et al. 1987), the “FSH, LH in young and old men” value is on record as “increased in FSH, LH”; the “free and total testosterone in men” value was “increases in free and total testosterone”. Further, the “semen quality or fertility” value in the data set on men (WHO study, 6 months of treatment) is given as “no changes in semen quality or fertility”. The side effects result in the data set with men (approved cis/trans mixture) is “blurred vision, abdominal discomfort, gynecomastia, testicular tumors, vasomotor flushes, nausea, and headaches”. The “genotoxicity and tumor enhancement” value in the data set with men (other studies) is “genotoxic and tumor enhancement effects”.
`CCN(CC)CCOc1ccc(/C(=C(\Cl)c2ccccc2)c2ccccc2)cc1` [Enclomid, trans-clomiphene]: in the data set with Adult, male, Baboons [1], the “effect on total serum testosterone” value is reported as “significant increases in total serum testosterone; also recorded: more effective than Clomid or Zuclomid”; the “Serum Testosterone Levels, 6 days, mean” value worked out at 1144.4 ng/dL; the “Serum Testosterone Levels, 12 days, mean” value was 1088.5 ng/dL; the “Serum Testosterone Levels, wash-out, mean” value was determined as 325.8 ng/dL. Besides, in the data set with Adult, male, Baboons [1], the “Serum Testosterone Levels, baseline, mean” value came to 134.0 ng/dL; the “Serum Testosterone Levels, 0 day, mean” value came out at 105.0 ng/dL; the “Serum Testosterone Levels, 6 days” value was 1223.8 ng/dL and 1128.2 ng/dL and 1081.1 ng/dL; the “Serum Testosterone Levels, 12 days” value is 633.6 ng/dL and 1466 ng/dL and 1166 ng/dL. Moreover, in the data set on Adult, male, Baboons [1], the “Serum Testosterone Levels, wash-out” value was 307.2 ng/dL and 399.2 ng/dL and 271 ng/dL; the “Serum Testosterone Levels, baseline” value is 64.57 ng/dL and 166.86 ng/dL and 170.45 ng/dL; the “Serum Testosterone Levels, 0 day” value is 74.96 ng/dL and 133.59 ng/dL and 106.47 ng/dL. Besides, the “change of total serum testosterone after cessation of treatment” value in the data set with Adult, male, Baboons [1] (between day 12 and day 18 (washout)) is listed as “significant drop”. The “total serum testosterone on days 6 and 12 compared with baseline or day 0 (FIG. 3 time course)” value in the data set on Adult, male, Baboons [1] (days 6 and 12 vs baseline or day 0) was “significantly and statistically raised total serum testosterone”. In addition, the “clearance from the circulation” value in the data set with Adult, male, Baboons [1] (inferred from testosterone drop after cessation) is “readily cleared from the circulation”. Moreover, the platelets entry in the data set on Adult, male, Baboons [2] (12-day treatment, values stayed within the normal range) is listed as “clear effect”. Further, the serum creatinine result in the data set on Adult, male, Baboons [2] (between day 0 and Day 12) is given as “no differences”. For the same compound, in the data set with Adult, male, Baboons [2], the serum glucose entry is on record as “no increases with treatment”, the anionic gap result is given as “raised this parameter towards normal values”, the “Alkaline phosphatase (ALP)” value is reported as “decreased in value” and the serum cholesterol result is “tended to decrease”. In the data set on Adult, male, Baboons [2] (in vivo), the “counts of lymphocytes and eosinophiles” value is recorded as “raising the counts”; the “red blood cell population” value is “substantive effects”. The “count and percent lymphocytes” value with Adult, male, Baboons [2] (mean percent remains in the normal range) is “increase”. Moreover, the “percent of granulocytes in the blood” value with Adult, male, Baboons [2] (very strong after the 7-day washout, below the normal range) was “strong effect”. In addition, in the data set with Adult, male, Baboons [3], the “serum prolactin (PRL)” value is “decrease”. The “estrogenic / antiestrogenic activity” value in data set [4] is listed as “antiestrogenic”.
As to `CCN(CC)CCOc1ccc(/C(=C(/Cl)c2ccccc2)c2ccccc2)cc1` [Zuclomid, cis-clomiphene], in data set [5] (relative to the other isomer in Clomid), the half-life result is “longer half-life”. For the same compound, the “residual blood levels following a single dose” value in data set [5] (reported in literature) is “in excess of one month”. Also, in the data set on Adult, male, Baboons [1], the “effect on total serum testosterone” value is given as “did not raise total serum testosterone to any extent; also recorded: not effective”; the “Serum Testosterone Levels, 6 days, mean” value was 178.5 ng/dL; the “Serum Testosterone Levels, 12 days, mean” value is 357.9 ng/dL; the “Serum Testosterone Levels, wash-out, mean” value was 498.1 ng/dL. For the same compound, in the data set on Adult, male, Baboons [1], the “Serum Testosterone Levels, baseline, mean” value amounted to 170.6 ng/dL; the “Serum Testosterone Levels, 0 day, mean” value stood at 394.2 ng/dL; the “Serum Testosterone Levels, 6 days” value was 137.51 ng/dL and 169.98 ng/dL and 227.95 ng/dL; the “Serum Testosterone Levels, 12 days” value is 314.5 ng/dL and 406.1 ng/dL and 353.0 ng/dL. For the same compound, in the data set with Adult, male, Baboons [1], the “Serum Testosterone Levels, wash-out” value is 359.7 ng/dL and 860.5 ng/dL and 274.1 ng/dL; the “Serum Testosterone Levels, baseline” value was 124.84 ng/dL and 104.66 ng/dL and 282.29 ng/dL; the “Serum Testosterone Levels, 0 day” value was 210.4 ng/dL and 67.37 ng/dL and 904.82 ng/dL. In the data set with Adult, male, Baboons [2], the serum glucose entry was “increase”, the anionic gap result is “lower values than the Enclomid group”, the “Alkaline phosphatase (ALP)” value is on record as “not elevated” and the serum cholesterol result was “tended to increase”. For the same compound, in the data set with Adult, male, Baboons [2] (in vivo), the AST result was “lowering”, the hematocrit entry is “substantive effects” and the “red blood cell population” value is listed as “substantive effects”. The “estrogenic / antiestrogenic activity” value in data set [4] was “more potent and more estrogenic”.
